Drawing on PubChem BioAssay (NCI), this text covers TGI and GI50 for 14 compounds.

Some test systems named below: OVCAR-5 ovarian; SNB-75 CNS; SF-295 CNS; OVCAR-8 ovarian; UO-31 renal; OVCAR-3 ovarian; HL-60(TB) leukemia; TK-10 renal; PC-3 prostate; MCF7 breast.
Common to all, as to assay: NCI-60 cell line screen, 48 h

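In this assay, cells in 96-well plates receive the compound at five concentrations for 48 hours. Endpoints are linearly interpolated between the surrounding concentrations. GI50 is the concentration that inhibits growth by half. TGI is the concentration that stops growth completely.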

As to `O=c1/c(=C/c2ccccc2[N+](=O)[O-])sc2nnc(-c3cccnc3)n12`, the TGI in the test on OVCAR-5 ovarian, in the test with SNB-75 CNS, with SF-295 CNS, in the test on OVCAR-8 ovarian, with UO-31 renal and with OVCAR-3 ovarian was over 100 µM each time. Moreover, the TGI in the test with HL-60(TB) leukemia and with TK-10 renal was over 100 µM in each case.

Regarding `COc1cc([C@@H]2c3cc4c(cc3[C@@H](NC(=O)c3ccc(C#N)cc3)C3COC(=O)[C@@H]32)OCO4)cc(OC)c1O` (stereo not given in full), the TGI with OVCAR-5 ovarian amounted to 8.53 µM; in the test with SNB-75 CNS, 5.49 µM; in the test on SF-295 CNS it was 11.8 µM; with OVCAR-8 ovarian it was 6.38 µM; in the test with UO-31 renal it was 15.3 µM; with OVCAR-3 ovarian, 4.66 µM. Besides, the TGI in the test with HL-60(TB) leukemia worked out at 11.1 µM; in the test on TK-10 renal, 4.86 µM.

In the case of `COc1cc2oc(-c3ccc(O)cc3)cc(=O)c2c(O)c1C1OC(CO)C(O)C(O)C1O` (stereo not given), the TGI with OVCAR-5 ovarian, in the test with SNB-75 CNS, with SF-295 CNS, in the test with OVCAR-8 ovarian, in the test on UO-31 renal and in the test on OVCAR-3 ovarian was over 100 µM in each case. Moreover, the TGI in the test on HL-60(TB) leukemia and in the test with TK-10 renal was over 100 µM throughout.

For `O=C1NC2=C(CCCCC/C2=N\O)C12CCCCCC2`, the TGI in the test on OVCAR-5 ovarian, in the test with SNB-75 CNS, in the test with SF-295 CNS, with OVCAR-8 ovarian, with UO-31 renal and in the test with OVCAR-3 ovarian was over 100 µM each time. For the same compound, the TGI in the test on HL-60(TB) leukemia and with TK-10 renal was over 100 µM in each case.

Take `CC1(C)OC[C@@H]([C@@]2(CO[Si](c3ccccc3)(c3ccccc3)C(C)(C)C)CC=CC(=O)O2)O1`: the GI50 with OVCAR-5 ovarian was 16.7 µM; in the test on SF-295 CNS, 5.43 µM; in the test with OVCAR-8 ovarian, 5.05 µM; with UO-31 renal, 12.2 µM; in the test on PC-3 prostate, 5.92 µM; with MCF7 breast it was 4.83 µM. Further, the values for the GI50 with OVCAR-3 ovarian and in the test with TK-10 renal were 4.3 µM and 11.7 µM, respectively. The TGI with OVCAR-5 ovarian is 49.6 µM; with SF-295 CNS, 25.9 µM; in the test on OVCAR-8 ovarian, over 100 µM; in the test on UO-31 renal, over 100 µM; in the test with PC-3 prostate, over 100 µM; in the test with MCF7 breast, over 100 µM. Further, the TGI with OVCAR-3 ovarian was over 100 µM; in the test on TK-10 renal, 33 µM.

For the compound `Cc1nc(N)nc(CCC(=O)Nc2cccc(C(F)(F)F)c2)c1-c1ccc(Cl)cc1`, the TGI in the test on OVCAR-5 ovarian, in the test on SNB-75 CNS, in the test on SF-295 CNS, in the test with OVCAR-8 ovarian, in the test on UO-31 renal and in the test on OVCAR-3 ovarian was over 100 µM throughout. Further, the TGI with HL-60(TB) leukemia and in the test on TK-10 renal was over 100 µM throughout.

On to `COc1cc(CNc2nc3cc(N)cc(N)c3nc2-c2ccccc2)cc(OC)c1`, for which the GI50 in the test with OVCAR-5 ovarian is 5.9 µM; with SF-295 CNS, 14.2 µM; in the test with OVCAR-8 ovarian, 2.8 µM; with UO-31 renal it was 4.05 µM; in the test on PC-3 prostate it was 3.05 µM; with MCF7 breast, 8.34 µM. In addition, the figures for the GI50 in the test with OVCAR-3 ovarian, with HL-60(TB) leukemia and in the test with TK-10 renal were 1.86 µM, 3.84 µM and 24.6 µM, respectively. In addition, the TGI with OVCAR-5 ovarian was 29.2 µM; in the test on SF-295 CNS it was 35.1 µM; in the test on OVCAR-8 ovarian it was 8.1 µM; in the test with UO-31 renal it was over 100 µM; in the test on PC-3 prostate it was 14.4 µM; in the test with MCF7 breast, over 100 µM. In addition, the figures for the TGI in the test on OVCAR-3 ovarian, with HL-60(TB) leukemia and in the test on TK-10 renal were 4.52 µM, over 100 µM and 62.3 µM, respectively.

Take `CCc1cccc(C)c1NC(=O)CCc1nc(=S)[nH][nH]1`: the TGI in the test with OVCAR-5 ovarian, in the test on SF-295 CNS, in the test on OVCAR-8 ovarian, in the test on UO-31 renal, with OVCAR-3 ovarian and with HL-60(TB) leukemia was over 100 µM in each case. Further, the TGI in the test on TK-10 renal was over 100 µM.

In the case of `O=C(NC1C(=O)NNC1c1cccc([N+](=O)[O-])c1)c1ccccc1` (stereo not given), the TGI with OVCAR-5 ovarian, in the test with SNB-75 CNS, with SF-295 CNS, with OVCAR-8 ovarian, in the test with UO-31 renal and in the test with OVCAR-3 ovarian was over 100 µM throughout. The TGI in the test with HL-60(TB) leukemia and with TK-10 renal was over 100 µM in each case.

`OCc1cc2c(cn1)[nH]c1ccc(NCc3ccccc3)cc12`: the TGI with OVCAR-5 ovarian is over 100 µM; in the test on SNB-75 CNS, 69.7 µM; in the test with SF-295 CNS it was 59.9 µM; in the test on OVCAR-8 ovarian it was over 100 µM; with UO-31 renal, 82.7 µM; in the test with OVCAR-3 ovarian, 69.6 µM. For the same compound, the figures for the TGI in the test with HL-60(TB) leukemia and with TK-10 renal were 31.4 µM and 85.8 µM, respectively.

Regarding `O=[N+]([O-])c1ccccc1C1SCc2nc3ccccc3n21` (stereo not given), the TGI with SF-295 CNS, in the test with OVCAR-8 ovarian, with UO-31 renal, in the test on HL-60(TB) leukemia and with TK-10 renal was over 100 µM throughout.

`O=c1cc(O)cc2n1CCC2`: the TGI in the test with OVCAR-5 ovarian, in the test with SNB-75 CNS, with SF-295 CNS, with OVCAR-8 ovarian, in the test with UO-31 renal and in the test on OVCAR-3 ovarian was over 100 µM each time. This compound also showed a TGI in the test with TK-10 renal of over 100 µM.

With `COC(=O)C1C(=O)O[C@@H](c2ccc3c(c2)OCO3)C1C(=O)OC` (mixture of isomers), the TGI in the test with OVCAR-5 ovarian, in the test with SNB-75 CNS, in the test with SF-295 CNS, in the test on OVCAR-8 ovarian, in the test with UO-31 renal and in the test with OVCAR-3 ovarian was over 100 µM in each case. In addition, the TGI in the test on HL-60(TB) leukemia and in the test with TK-10 renal was over 100 µM throughout.

For the compound `COC(=O)CCC(NC(=S)N/N=C/c1cccs1)C(=O)OC` (stereo not given), the TGI with OVCAR-5 ovarian, in the test with SNB-75 CNS, in the test on SF-295 CNS, in the test on OVCAR-8 ovarian, in the test with UO-31 renal and in the test on OVCAR-3 ovarian was over 100 µM throughout. For the same compound, the TGI in the test with HL-60(TB) leukemia and in the test on TK-10 renal was over 100 µM in each case.
